Reference: patent US12606552B2, “Bifunctional compound, preparation method therefor, and use thereof” (SUZHOU KINTOR PHARMACEUTICALS, INC., priority 2020, dated 2026)

Columns and labels:
[1] = Pharmacokinetic studies of compounds in mice; assay type: in vivo; conditions: male mice, intragastric administration 10 mg/kg, plasma
Experimental: Activity Assay Example 3: Pharmacokinetic Studies of Compounds in Mice
In this test, 3 male mice were selected and divided into 1 group, 3 mice/group. All animals were fasted overnight before administration.
The intragastric administration dose was 10 mg/kg, and the administration volume was 10 mL/kg.
2.2 Preparation of Drug Solution
According to the animal body weight combined with the administration dose, the amount of the required drug solution was calculated. An appropriate amount of the test substance was weighed, added with 5% of the final volume of ethanol for dissolution, then added with 5% of the final volume of SolutolHS15, and finally added with PBS to the final volume, and mixed by vortex and fully dissolved to obtain a solution for intragastric administration (1 mg/mL). All solutions were prepared for immediate use.
2.3 Method of Administration
Before administration, the drug solution was placed on a magnetic stirrer in the animal laboratory and stirred for at least 10 min. During the administration process, vortex was continued to ensure uniformity of the drug solution. The theoretical volume of gavage administration was 10 mL/kg, which was administered with a syringe equipped with a gavage needle.
Before administration, the animals were weighed and the body weight of the animals involved in the experiment was recorded, and the administration volume of each animal was calculated according to the body weight. After administration, animals were promptly transferred back to the experimental cages to collect samples.
2.4 Observation of Animal Status
After administration, whether animals had abnormal reactions was observed immediately. If there were no abnormal reactions, animals were observed twice a day during the experiment. If abnormal reactions were found, they should be recorded in time, and the number of observations should be increased until the animals returned to normal or to the end of the experiment.
2.5 Sample Collection and Preservation
All experimental animals were fasted overnight before administration, and blood was collected at corresponding time points into blood collection tubes containing heparin sodium anticoagulant. After the whole blood was collected, the blood collection tube was gently shaken and placed on ice immediately, and then centrifuged (4° C., 4000 rpm, 10 min) to collect supernatant plasma samples, which were stored in a refrigerator at −80° C. before analysis.
2.6 Plasma Sample Processing and Analysis
The collected plasma samples were handed over to the Pharmacokinetic department for sample extraction, and the test substances in the plasma were extracted by protein precipitation method using organic reagents containing internal standards (acetonitrile:plasma=4:1, v/v). The extracted processed samples were submitted for quantitative concentration analysis by LC-MS/MS. According to the plasma concentration of each animal obtained by the analysis, software Kinetica (version 5.0) was used to calculate the main pharmacokinetic parameter eAUC30-120 according to the non-compartment model to evaluate the exposure amount; the test results are shown in Table 2: […]

AR = biological target: T1, AR (Homo sapiens, UniProt P10275, T878A); assay: Effects of compounds on AR expression in LNCaP cells (ELISA, DC50); assay type: cell-based; set-up: Measurement of the Effects of Drugs on the Expression of AR in Cells by ELISA Method; endogenous in cells; host or cells: LNCaP; conditions: 24 hours of drug treatment, AR by ELISA
T1 sequence (P10275 1-920 T878A): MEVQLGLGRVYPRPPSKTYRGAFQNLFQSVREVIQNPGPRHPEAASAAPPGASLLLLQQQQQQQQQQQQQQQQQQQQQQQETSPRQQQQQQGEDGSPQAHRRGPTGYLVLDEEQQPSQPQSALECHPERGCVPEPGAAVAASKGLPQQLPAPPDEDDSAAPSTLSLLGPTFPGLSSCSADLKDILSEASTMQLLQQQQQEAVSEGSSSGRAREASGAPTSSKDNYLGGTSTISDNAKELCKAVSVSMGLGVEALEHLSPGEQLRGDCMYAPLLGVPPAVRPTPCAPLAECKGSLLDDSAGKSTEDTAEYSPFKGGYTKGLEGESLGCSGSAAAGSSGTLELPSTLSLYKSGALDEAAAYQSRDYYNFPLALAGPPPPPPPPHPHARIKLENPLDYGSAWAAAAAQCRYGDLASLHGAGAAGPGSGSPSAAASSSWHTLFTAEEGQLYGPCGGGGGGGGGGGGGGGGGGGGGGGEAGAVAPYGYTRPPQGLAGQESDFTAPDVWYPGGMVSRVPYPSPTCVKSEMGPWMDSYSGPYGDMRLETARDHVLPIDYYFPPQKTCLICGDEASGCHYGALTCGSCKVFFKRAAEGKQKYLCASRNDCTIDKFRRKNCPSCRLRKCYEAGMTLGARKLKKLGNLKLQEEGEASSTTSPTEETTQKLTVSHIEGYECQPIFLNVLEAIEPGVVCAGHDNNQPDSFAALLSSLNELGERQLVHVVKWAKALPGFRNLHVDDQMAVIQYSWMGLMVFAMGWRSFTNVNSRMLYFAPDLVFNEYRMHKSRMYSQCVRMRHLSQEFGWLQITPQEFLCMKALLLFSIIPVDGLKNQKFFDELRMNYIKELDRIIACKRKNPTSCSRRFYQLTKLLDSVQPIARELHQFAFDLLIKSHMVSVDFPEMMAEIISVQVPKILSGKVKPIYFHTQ
Method in brief: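 LNCaP cells at about 15,000/well were treated for 24 h with compound at 0.0001–2 μmol/L final. AR in cell lysates was measured by ELISA (OD450). Inhibition was relative to DMSO control after blank subtraction, and DC50 was calculated from it.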

Row | Structure (SMILES) | eAUC0.5-2 h [1] [ng·h/mL] | DC50 (AR) [nM]
1 | Cc1ncsc1-c1ccc([C@H](C)NC(=O)[C@@H]2C[C@@H](O)CN2C(=O)[C@@H](NC(=O)COCCCCOc2ccc(-c3ncc(N4C(=S)N(c5ccc(C#N)c(C(F)(F)F)c5F)C(=O)C4(C)C)cc3F)cc2F)C(C)(C)C)cc1 [Compound A110] | 1098 ± 208 | 56.4
2 | Cc1ncsc1-c1ccc(CNC(=O)[C@@H]2C[C@@H](O)CN2C(=O)[C@@H](NC(=O)COCCCCOc2ccc(-c3ncc(N4C(=S)N(c5ccc(C#N)c(C(F)(F)F)c5F)C(=O)C4(C)C)cn3)cc2F)C(C)(C)C)cc1 [Compound A111] | 297 ± 78 | 46.2
3 | Cc1ncsc1-c1ccc([C@H](C)NC(=O)[C@@H]2C[C@@H](O)CN2C(=O)[C@@H](NC(=O)COCCCCCOc2ccc(-c3ncc(N4C(=S)N(c5ccc(C#N)c(C(F)(F)F)c5F)C(=O)C4(C)C)cc3F)cc2F)C(C)(C)C)cc1 [Compound A112] | 383 ± 165 | 153
4 | Cc1ncsc1-c1ccc([C@H](C)NC(=O)[C@@H]2C[C@@H](O)CN2C(=O)[C@@H](NC(=O)COCCCCOc2c(F)cc(-c3ncc(N4C(=S)N(c5ccc(C#N)c(C(F)(F)F)c5F)C(=O)C4(C)C)cc3C(F)(F)F)cc2F)C(C)(C)C)cc1 [Compound A115] | 1136 ± 164 | 214
5 | Cc1ncsc1-c1ccc([C@H](C)NC(=O)[C@@H]2C[C@@H](O)CN2C(=O)[C@@H](NC(=O)COCCOc2ccc(-c3ncc(N4C(=S)N(c5ccc(C#N)c(C(F)(F)F)c5F)C(=O)C4(C)C)cc3F)cc2F)C(C)(C)C)cc1 [Compound A123] | 287 ± 146 | 61.3
6 | Cc1ncsc1-c1ccc([C@H](C)NC(=O)[C@@H]2C[C@@H](O)CN2C(=O)[C@@H](NC(=O)COCCCCOc2c(F)cc(-c3ncc(N4C(=S)N(c5ccc(C#N)c(C(F)(F)F)c5F)C(=O)C4(C)C)cc3F)cc2F)C(C)(C)C)cc1 [Compound A124] | 2776 ± 292 | 188
7 | Cc1ncsc1-c1ccc([C@H](C)NC(=O)[C@@H]2C[C@@H](O)CN2C(=O)[C@@H](NC(=O)COCCCCOc2ccc(-c3ccc(N4C(=S)N(c5ccc(C#N)c(C(F)(F)F)c5F)C(=O)C4(C)C)cn3)cn2)C(C)(C)C)cc1 [Compound A126] | 1110 ± 158 | 55
8 | Cc1ncsc1-c1ccc([C@H](CC(=O)N2CCC(C#Cc3ccc(N4C(=S)N(c5ccc(C#N)c(C(F)(F)F)c5F)C(=O)C4(C)C)cc3)CC2)NC(=O)[C@@H]2C[C@@H](O)CN2C(=O)[C@@H](NC(=O)C2(F)CC2)C(C)(C)C)cc1 [Compound A133] | 2253 ± 851 | 33.3
9 | Cc1ncsc1-c1ccc(CNC(=O)[C@@H]2C[C@@H](O)CN2C(=O)[C@@H](NC(=O)c2ccc(CNC(=O)CCCc3ccc(N4C(=S)N(c5ccc(C#N)c(C(F)(F)F)c5F)C(=O)C4(C)C)cn3)cc2)C(C)(C)C)cc1 [Compound A134] | 29 ± 22 | 1130
10 | Cc1ncsc1-c1ccc([C@H](CC(=O)N2CCC(Oc3ccc(-c4ncc(N5C(=S)N(c6ccc(C#N)c(C(F)(F)F)c6F)C(=O)C5(C)C)cc4F)cc3F)CC2)NC(=O)[C@@H]2C[C@@H](O)CN2C(=O)[C@@H](NC(=O)C2(F)CC2)C(C)(C)C)cc1 [Compound A136] | 697 ± 127 | 68
11 | CNC(=O)[C@@H]1C[C@@H](O)CN1C(=O)[C@@H](NC(=O)COCCCCOc1ccc(-c2ncc(N3C(=S)N(c4ccc(C#N)c(C(F)(F)F)c4F)C(=O)C3(C)C)cc2F)cc1F)C(C)(C)C [Compound A137] | 92 ± 34 | 145
12 | Cc1ncsc1-c1ccc2[nH]c([C@@H]3C[C@@H](O)CN3C(=O)[C@@H](NC(=O)COCCCCOc3ccc(-c4ncc(N5C(=S)N(c6ccc(C#N)c(C(F)(F)F)c6F)C(=O)C5(C)C)cc4F)cc3F)C(C)(C)C)nc2c1 [Compound A138] | 471 ± 288 | 1500
13 | Cc1ncsc1-c1ccc([C@H](CC(=O)NCCN2CCC(C#Cc3ccc(N4C(=S)N(c5ccc(C#N)c(C(F)(F)F)c5F)C(=O)C4(C)C)cc3)CC2)NC(=O)[C@@H]2C[C@@H](O)CN2C(=O)[C@@H](NC(=O)C2(F)CC2)C(C)(C)C)cc1 [Compound A139] | 53 ± 30 | 225
